Literature values in patent US20100137357A1, “COMPOSITIONS AND METHODS FOR HYPERHIDROSIS” (priority 2008, published 2010).

System: serous and seromucous glands
Details: humans, applied locally to the nasal mucosa

SMILES: CC(C)[N+]1(C)[C@@H]2CC[C@H]1CC(OC(=O)C(CO)c1ccccc1)C2.[Br-] (stereo partly shown) [ipratropium bromide]
- secretions from the serous and seromucous glands: inhibits secretions
